Reference: US9458199B2, “Antigen surrogates in autoimmune disease” (OPKO Pharmaceuticals, LLC, priority 2011, dated 2016)
Values belong to the molecule of their own block, whether it stands above or below them. Bridge positions count the residues as written; N and C are the ends. Square brackets hold non-standard residues; d marks the D form. Peptide text beside a SMILES is read from it. ξ: configuration not given here. Gly(N-CH2CH2C6H4-4Cl) = O=C(O)CNCCc1ccc(Cl)cc1; Gly(N-piperonyl) = O=C(O)CNCc1ccc2c(c1)OCO2; Nrpe = C[C@@H](NCC(=O)O)c1ccccc1; NFurfurylGly = O=C(O)CNCc1ccco1; ξE = NC(CCC(=O)O)C(=O)O; Nleu = CC(C)CNCC(=O)O; Nlys = NCCCCNCC(=O)O; Nme = COCCNCC(=O)O

Assays:
[1] = tested on: CD4+ T cells from MBP Ac1-11 TCR transgenic mice; assay: Binding of quantum dot-labeled T cells to peptoid resynthesized on beads; settings: red quantum dot-labeled
Method: To determine whether AG12A was binding to the autoreactive TCR, the inventors took advantage of the existence of transgenic mice, in which the vast majority of CD4+ T cells express the MBP Ac1-11 specific TCR (Vα2.3/Vβ8.2 TCR) (Goveman et al., 1993). CD4+ T cells were isolated from these mice and tested for binding to AG12A. This was done in several ways. First, AG12A was resynthesized on beads, as was a control peptoid not selected as a T cell ligand. The beads were then incubated with red quantum dot-labeled T cells.

[2] = tested on: wild-type CD4+ T cells; assay: as above; design: species or system mice
[3] = tested on: MBP Ac1-11 specific T cells (Vα2.3/Vβ8.2 TCR transgenic); assay: DOPA chemical cross-linking, streptavidin staining, mean fluorescence intensity; design: species or system mice; settings: biotin-labeled DOPA-peptoid, periodate cross-linking, CD4+/streptavidin+ cells; read-out: Kr, of binding to MBP Ac1-11 specific T cells
[4] = tested on: B cells; assay: B cell proliferation; assay type: cell-based
[5] = tested on: Myelin Oligodendrocyte Glycoprotein (MOG) 35-55 specific TCR transgenic T cells; assay: Antigen-stimulated T cell proliferation, CFSE dilution by flow cytometry; assay type: cell-based
[6] = target: pemphigus vulgaris autoantibody (Dsg3); assay: Solution binding to pemphigus vulgaris autoantibody; settings: pemphigus vulgaris autoantibody to the Dsg autoantigen; read-out: binding affinity in solution

SMILES: CC(C)CNCC(=O)N(CCCCN)CC(=O)N(CC(=O)N(CC(=O)N(CCCCN)CC(=O)N(CC(=O)N(CCCCN)CC(=O)N(CCCCN)CC(N)=O)CC(C)C)[C@H](C)c1ccccc1)Cc1ccco1 [AG12A] (H-[Nleu][Nlys][NFurfurylGly][Nrpe][Nlys][Nleu][Nlys][Nlys]-NH2; C-terminus assumed)
binding of T cells to peptoid displayed on beads [1]: bound to AG12A displayed on beads
binding of T cells to peptoid displayed on beads [2]: did not
Kd [3]: ~40 µM
inhibition of proliferation of B cells [4]: nor did AG12A inhibit proliferation of B cells
inhibition of antigen-stimulated proliferation of MOG 35-55 specific TCR transgenic T cells [5]: did not inhibit

Kd [6]: ~10 µM
SMILES: COCCN1CC(=O)N(CCCCN)CC(=O)N(Cc2ccc3c(c2)OCO3)CC(=O)N(CCc2ccc(Cl)cc2)CC(=O)NC(C(N)=O)CCC1=O (stereo not drawn) [compound 1a] ([Nme][Nlys][Gly(N-piperonyl)][Gly(N-CH2CH2C6H4-4Cl)][ξE]-NH2; lactam N-5)
